Test results as given in US8916564B2, “Substituted pyrido[1,2-a]pyrazines for the treatment of neurodegenerative and neurological disorders” (priority 2012, dated 2014).
pIC50: −log10 of the molar value.

Target: γ-secretase (Cricetulus griseus, UniProt G3HNF2)
Experiment: Cell-Based γ-Secretase Assay with ELISA Readout (production of amyloid beta protein Aβ(1-42))
Conditions: human WT-APP overexpressing CHO cells; Aβ(1-42) ELISA; geometric mean of 2-4 determinations (b: single determination; c: geometric mean of ≧5 determinations)
Method: The ability of compounds to modulate production of amyloid beta protein Aβ(1-42) was determined using human WT-APP overexpressing CHO cells. Cells were plated at 22,000 cells/100 μL well in 96 well tissue culture treated, clear plates (Falcon) in DMEM/F12 based medium and incubated for 24 hours at 37° C. […] Compounds were added in fresh medium to achieve 1% final DMSO. Appropriate vehicle or inhibitor controls were added into control wells individually to obtain minimum or maximum inhibition values, respectively, for the assay signal window before the plates were incubated for ˜24 hours at 37° C. This procedure produces conditioned media in each well which is tested for Aβ(1-42) levels in the ELISA detection step described next. The remaining cell cultures in each well are also tested for cell toxicity as described below.
Coating of ELISA assay plates was initiated by addition of 50 μL/well of an in-house Aβ(1-42) specific antibody at (3 μg/mL) in 0.1 M NaHCO3 (pH 9.0) into black 384-well Maxisorp® plates (Nunc) and incubated overnight at 4° C. […] Cell toxicity was also measured in the corresponding remaining cells after removal of the conditioned media for the Aβ(1-42) assay by a colorimetric cell proliferation assay (CellTiter 96®AQueous One Solution Cell Proliferation Assay, Promega) according to the manufacturer's instructions. […]

Q: With `Cc1cn(-c2ccc3n(c2=O)CCN(CC2CC(c4ccc(Cl)c(C(F)(F)F)c4)=NO2)C3=O)cn1` (stereo not shown) [Example 32, 2-({3-[-chloro-3-(trifluoromethyl)phenyl]-4,5-dihydro-1,2-oxazol-5-yl}methyl)-7-(4-methyl-1H-imidazol-1-yl)-3,4-dihydro-2H-pyrido[1,2-a]pyrazine-1,6-dione] as the compound, how does the pIC50 read?
A: The pIC50 was 6.37.
